Source: patent US7713994B2 (Wyeth LLC, priority 2005, dated 2010)
Read-outs that look alike come from different tables or passages of the source.

Experiments:
cyclin B/CDK1 enzyme = molecular target: T1, cyclin B/CDK1 enzyme (Homo sapiens, UniProt P06493); test: CDK1 ELISA kinase assay (phospho-Rb ser 795 detection); format: biochemical
T1 construct: purchased New England BioLabs; host or cells: Sf9 insect cells, recombinant baculovirus
Outline: (§1)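 Sf9-derived cyclin/CDK, 200 μM ATP, immobilized GST-Rb; 30° C/1 h. Detection: phospho-Ser795 Ab, HRP, TMB, OD450.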

BT474 = test: Cytotoxicity assay (SRB), BT474; format: cell-based
Outline: (§2)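 Seeding: BT474 12000, HCT-116 4000, LoVo 6000, MCF-7 6000 cells/well; overnight attachment, 37 °C, 7% CO2. Drug exposure 3 d (BT474 6 d), RPMI 1640 + 5% FBS. Readout: TCA fix, 0.4% SRB, Tris solubilisation, A540.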

HCT-116 = test: Cytotoxicity assay (SRB), HCT-116; format: cell-based; details: HCT116 cells, SRB, read-out: In Vitro Cellular Activity IC50 HCT116
Outline: as §2

LoVo = test: Cytotoxicity assay (SRB), LoVo; format: cell-based; details: LoVo cells, SRB, read-out: In Vitro Cellular Activity IC50 LOVO
Outline: as §2

MCF-7 = test: Cytotoxicity assay (SRB), MCF-7; format: cell-based; details: MCF-7 cells, SRB, read-out: In Vitro Cellular Activity IC50 MCF-7
Outline: as §2

SK-UT-1B = test: In Vitro Cellular Activity (Table III), SK-UT-1B; format: cell-based; details: SK-UT-1B cells
cyclin D1/cdk 4 enzyme = molecular target: T2, cyclin D1/cdk 4 enzyme (Homo sapiens, UniProt P11802); test: CDK4 ELISA kinase assay (phospho-Rb ser 795 detection); format: biochemical
T2 construct: made in house; host or cells: Sf9 insect cells, recombinant baculovirus
Outline: as §1

cyclin E/CDK2 enzyme = molecular target: T3, cyclin E/CDK2 enzyme (Homo sapiens, UniProt P24941); test: CDK2 ELISA kinase assay (phospho-Rb ser 795 detection); format: biochemical
T3 construct: made in house; host or cells: Sf9 insect cells, recombinant baculovirus
Outline: as §1

[1] = I.V. and P.O. Dosing in Mice; format: in vivo; details: for AUC(0-inf) / bioavailability: mouse, in vivo; for bioavailability: po 50 mg/kg vs i.v. 2 mg/kg
[2] = In Vitro Enzyme Assays, read-out: CDK1 IC50
[3] = Homo sapiens, BT-474, 144 h, BT474 cells, SRB, 6 days; read-out: In Vitro Cellular Activity IC50 BT474
[4] = Homo sapiens, HCT-116, 72 h, three days
[5] = Homo sapiens, LoVo, 72 h, three days
[6] = Homo sapiens, MCF7, 72 h, three days
[7] = In Vitro Enzyme Assays, 200 μM ATP, read-out: CDK4 IC50
[8] = In Vitro Enzyme Assays, read-out: CDK2 IC50
[9] = BT474 cells, SRB, 6 days; read-out: In Vitro Cellular Activity IC50 BT474
[10] = In Vitro Enzyme Assay, cyclin E/CDK2, read-out: CDK2 IC50
[11] = In Vitro Enzyme Assay, cyclin B/CDK1, read-out: CDK1 IC50
[12] = Homo sapiens, BT-474, 144 h, BT474 cells, 6 days, SRB; read-out: In Vitro Cellular Activity IC50 BT474
[13] = Homo sapiens, HCT-116, 72 h, 3 days
[14] = Homo sapiens, LoVo, 72 h, 3 days
[15] = Homo sapiens, MCF7, 72 h, 3 days
[16] = iv, 2 mg/kg, dose i.v. 2 mg/kg, read-out: aucinf obs (i.v.)
[17] = po, 50 mg/kg, dose po 50 mg/kg, read-out: aucinf obs (po)
[18] = In Vitro Enzyme Assay, cyclin D1/cdk 4, read-out: CDK4 IC50

T2 sequence (P11802 whole entry, species assumed): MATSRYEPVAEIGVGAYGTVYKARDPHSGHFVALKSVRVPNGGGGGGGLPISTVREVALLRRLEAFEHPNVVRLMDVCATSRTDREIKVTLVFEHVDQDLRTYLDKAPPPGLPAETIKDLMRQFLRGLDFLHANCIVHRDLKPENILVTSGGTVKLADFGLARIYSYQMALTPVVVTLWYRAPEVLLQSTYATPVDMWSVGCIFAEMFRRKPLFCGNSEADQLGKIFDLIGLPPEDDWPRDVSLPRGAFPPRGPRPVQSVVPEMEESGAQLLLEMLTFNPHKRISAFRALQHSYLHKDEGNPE
T2 sequence (P24385 whole entry partner, species assumed): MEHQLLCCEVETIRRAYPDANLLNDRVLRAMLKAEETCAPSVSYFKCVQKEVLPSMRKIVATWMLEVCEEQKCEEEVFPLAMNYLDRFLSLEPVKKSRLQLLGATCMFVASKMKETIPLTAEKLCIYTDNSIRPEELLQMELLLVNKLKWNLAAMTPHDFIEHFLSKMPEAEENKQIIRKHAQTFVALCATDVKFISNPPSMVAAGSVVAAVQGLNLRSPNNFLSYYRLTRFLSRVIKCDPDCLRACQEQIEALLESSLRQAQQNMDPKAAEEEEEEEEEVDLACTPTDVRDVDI
T1 sequence (P06493 whole entry): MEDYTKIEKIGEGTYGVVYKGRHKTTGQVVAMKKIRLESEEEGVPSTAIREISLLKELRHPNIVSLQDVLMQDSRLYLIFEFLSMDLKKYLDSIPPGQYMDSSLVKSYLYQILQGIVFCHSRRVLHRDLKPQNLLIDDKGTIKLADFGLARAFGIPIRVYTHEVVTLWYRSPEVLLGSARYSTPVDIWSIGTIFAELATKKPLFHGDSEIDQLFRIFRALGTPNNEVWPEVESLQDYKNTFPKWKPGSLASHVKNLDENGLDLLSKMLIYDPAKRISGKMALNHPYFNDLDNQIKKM
T1 sequence (P14635 whole entry partner): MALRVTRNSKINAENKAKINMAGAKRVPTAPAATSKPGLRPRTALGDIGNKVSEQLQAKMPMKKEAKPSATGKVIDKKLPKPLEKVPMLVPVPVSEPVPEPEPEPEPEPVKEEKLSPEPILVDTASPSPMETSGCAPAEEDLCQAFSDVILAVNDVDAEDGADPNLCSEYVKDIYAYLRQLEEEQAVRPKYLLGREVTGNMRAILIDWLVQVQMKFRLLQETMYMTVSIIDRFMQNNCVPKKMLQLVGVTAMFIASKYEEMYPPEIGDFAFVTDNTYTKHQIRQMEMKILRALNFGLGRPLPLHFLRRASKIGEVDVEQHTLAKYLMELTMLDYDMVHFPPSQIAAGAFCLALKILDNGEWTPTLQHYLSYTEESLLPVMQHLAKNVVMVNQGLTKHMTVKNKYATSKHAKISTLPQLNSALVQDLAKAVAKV

IC50 (cyclin B/CDK1 enzyme; [2]) [µM] | IC50 (SK-UT-1B; Homo sapiens, Skut1B) [µM] | IC50 (cyclin D1/cdk 4 enzyme; [7]) [µM] | IC50 (cyclin E/CDK2 enzyme; [8]) [µM] | melting point | Cl_obs ([1]; dose i.v. 2 mg/kg) [mL/min/kg] | Vss_obs ([1]; dose i.v. 2 mg/kg) [L/kg] | AUC(0-inf) [1, 16] [ng·h/mL] | bioavailability ([1]; po, 50 mg/kg) [%] | Compound | IC50 (BT474; [3]) [µM] | IC50 (HCT-116; [4]) [µM] | IC50 (LoVo; [5]) [µM] | IC50 (MCF-7; [6]) [µM] | also measured
> 28 | 12.7 |  |  |  |  |  |  |  | CN1CCN(c2ccc(N/C=C3\C(=O)NC(=O)c4ccccc43)cc2)CC1 [compound 4] | 18 | 9.1 | 13 | 5.5 | 
> 33 | 4.3 | 9.5 | 5.6 |  |  |  |  |  | O=C1NC(=O)c2ccccc2/C1=C/Nc1ccc2cn[nH]c2c1 [compound 7] |  | 6.57 |  | 11.2 | 
 |  |  |  | 195 to 218 °C (dec.) | 23 | 0.9 | 1450 | 2.5 | CC(C)(C)c1ccc2c(c1)/C(=C/NCc1cc(O)c(-c3ccccc3)cn1)C(=O)NC2=O [Example 531, 6-tert-Butyl-4-{[(4-hydroxy-5-phenyl-pyridin-2-ylmethyl)-amino]-methylene}-4H-isoquinoline-1,3-dione] |  |  |  |  | IC50 (cyclin E/CDK2 enzyme; [10]): 2.6 µM; IC50 (cyclin B/CDK1 enzyme; [11]): 16.3 µM; IC50 (BT474; [12]): 0.04 µM; IC50 (HCT-116; [13]): 0.15 µM; IC50 (LoVo; [14]): 0.1 µM; IC50 (MCF-7; [15]): 0.7 µM; HL_Lambda_z ([1]; dose po 50 mg/kg): 5.2 h; AUC(0-inf) [1, 17]: 879 ng·h/mL
> 50 | 31 |  | 47 |  |  |  |  |  | CN1CCN(c2ccc(N/C=C3\C(=O)NC(=O)c4cc(Br)ccc43)cc2)CC1 [Example 45, (4Z)-7-Bromo-4-({[4-(4-methylPiperzin-1-yl)phenyl]amino}methylene)isoquinoline-1,3(2H,4H)-dione] | 19 | 5 | 33 | 18.8 | 
> 50 |  | 0.08 | > 50 | 224 to 226 °C | 37 | 11 | 901 | 18.2 | CN1CCN(c2ccc(N/C=C3\C(=O)NC(=O)c4ccc(-c5ccsc5)cc43)cc2)CC1 [Example 107, (4Z)-4-({[4-(4-Methylpiperazin-1-yl)phenyl]amino}methylene)-6-thien-3-ylisoquinoline-1,3(2H,4H)-dione] | 2.5 | 1.4 | 2.3 | 2.3 | HL_Lambda_z ([1]; dose po 50 mg/kg): 7.4 h; AUC(0-inf) [1, 17]: 4100 ng·h/mL
 |  |  |  | 162 to 178 °C (dec.) | 15 | 0.2 | 2240 | 13 | CCCOc1cnc(CN/C=C2\C(=O)NC(=O)c3ccc(C(C)(C)C)cc32)cc1O [Example 530, 6-tert-Butyl-4-{[(4-hydroxy-5-propoxy-pyridin-2-ylmethyl)-amino]-methylene}-4H-isoquinoline-1,3-dione] |  |  |  |  | IC50 (cyclin E/CDK2 enzyme; [10]): 0.96 µM; IC50 (BT474; [12]): 0.24 µM; IC50 (HCT-116; [13]): 0.43 µM; IC50 (LoVo; [14]): 0.28 µM; IC50 (MCF-7; [15]): 0.7 µM; HL_Lambda_z ([1]; dose po 50 mg/kg): 5.3 h; AUC(0-inf) [1, 17]: 7200 ng·h/mL
 |  |  |  | 292 to 293 °C (dec.) | 35 | 2.4 | 952 | 0 | O=C1NC(=O)c2ccc(I)cc2/C1=C/NCc1cc(O)c(-c2ccccc2)cn1 [Example 524, (4Z)-{[(4-Hydroxy-5-phenyl-pyridin-2-ylmethyl)-amino]-methylene}-6-iodo-4H-isoquinoline-1,3-dione] |  |  |  |  | IC50 (cyclin D1/cdk 4 enzyme; [18]): 0.04 µM; IC50 (cyclin E/CDK2 enzyme; [10]): 2.2 µM; IC50 (cyclin B/CDK1 enzyme; [11]): 27.9 µM; IC50 (BT474; [12]): 0.03 µM; IC50 (HCT-116; [13]): 0.11 µM; IC50 (LoVo; [14]): 0.12 µM; IC50 (MCF-7; [15]): 0.89 µM
 |  |  |  | 213 to 228 °C (dec.) | 5 | 0.5 | 6060 | 0.9 | O=C1NC(=O)c2ccc(I)cc2/C1=C/NCc1cc(O)c(-c2ccoc2)cn1 [Example 527, (4Z)-{[(5-Furan-3-yl-4-hydroxy-pyridin-2-ylmethyl)-amino]-methylene}-6-iodo-4H-isoquinoline-1,3-dione] |  |  |  |  | IC50 (cyclin D1/cdk 4 enzyme; [18]): 0.03 µM; IC50 (cyclin E/CDK2 enzyme; [10]): 2.3 µM; IC50 (cyclin B/CDK1 enzyme; [11]): 13.5 µM; IC50 (BT474; [12]): 0.09 µM; IC50 (HCT-116; [13]): 0.55 µM; IC50 (LoVo; [14]): 0.49 µM; IC50 (MCF-7; [15]): 2.7 µM; HL_Lambda_z ([1]; dose po 50 mg/kg): 3.4 h; AUC(0-inf) [1, 17]: 1400 ng·h/mL

Continued, compound first:

Compound | IC50 (cyclin B/CDK1 enzyme; [2]) [µM] | IC50 (SK-UT-1B; Homo sapiens, Skut1B) [µM] | IC50 (cyclin D1/cdk 4 enzyme; [7]) [µM] | IC50 (cyclin E/CDK2 enzyme; [8]) [µM] | melting point | Cl_obs ([1]; dose i.v. 2 mg/kg) [mL/min/kg] | Vss_obs ([1]; dose i.v. 2 mg/kg) [L/kg] | AUC(0-inf) [1, 16] [ng·h/mL] | bioavailability ([1]; po, 50 mg/kg) [%] | IC50 (BT474; [3]) [µM] | IC50 (HCT-116; [4]) [µM] | IC50 (LoVo; [5]) [µM] | IC50 (MCF-7; [6]) [µM] | also measured
(4E)-4-(2,3-dimethoxybenzylidene)isoquinoline-1,3(2H,4H)-dione-(4Z)-4-(2,3-dimethoxybenzylidene)isoquinoline-1,3(2H,4H)-dione (1:1) [Example 9] | > 32 |  | > 50 | > 32 |  |  |  |  |  |  |  |  |  | IC50 (BT474; [9]): 48 µM; IC50 (HCT-116; three days): 2.5 µM; IC50 (LoVo; three days): 6.8 µM; IC50 (MCF-7; three days): 9.7 µM; IC50 (SK-UT-1B): 15.1 µM
(4E)-4-[4-(dimethylamino)benzylidene]isoquinoline-1,3(2H,4H)-dione-(4Z)-4-[4-(dimethylamino)benzylidene]isoquinoline-1,3(2H,4H)-dione (1:1) [Example 10] | > 34 |  | > 50 | > 34 |  |  |  |  |  |  |  |  |  | IC50 (BT474; [9]): > 50 µM; IC50 (HCT-116; three days): 2.3 µM; IC50 (LoVo; three days): 5.9 µM; IC50 (MCF-7; three days): 12.5 µM; IC50 (SK-UT-1B): 23.6 µM
COc1ccc(/C=C2/C(=O)NC(=O)c3ccccc32)cc1OC [Example 12, (4E)-4-(3,4-dimethoxybenzylidene)isoquinoline-1,3(2H,4H)-dione] | > 32 | > 32 | > 50 | > 32 |  |  |  |  |  | > 50 | 2.1 | 5.4 | 14.5 | 
CN1CCN(c2ccc(N/C=C3\C(=O)NC(=O)c4ccc(Br)cc43)cc2)CC1 [Example 27, (4Z)-6-Bromo-4-({[4-(4-methylpiperazin-1-yl)phenyl}amino}methylene)isoquinoline-1,3(2H,4H)-dione] | > 50 | 3.6 | 1.4 | > 50 |  |  |  |  |  | 3.1 | 3.1 | 3.8 | 3 | 
O=C1NC(=O)c2ccccc2/C1=C/Nc1cccc(CCN2CCCC2)c1 [Example 22, (4Z)-4-({[3-(2-Pyrrolidin-1-ylethyl)phenyl]amino}methylene)isoquinoline-1,3(2H,4H)-dione] |  | 5.4 |  |  |  |  |  |  |  | 21 | 11 | 19 | 10 | 
O=C1NC(=O)c2ccccc2/C1=C/Nc1ccc(CN2CCOCC2)cc1 [Example 19, (4Z)-4-({[4-(Morpholin-4-ylmethyl)phenyl]amino}methylene)isoquinoline-1,3(2H,4H)-dione] | > 27 | 21.4 | 10.7 | 21.6 |  |  |  |  |  |  | 20 |  | 15.9 | 
(4Z)-4-[({3-Chloro-4-{(4chlorobenzyl)oxy]phenyl}amino)methylene]isoquinoline-1,3(2H,4H-dione [Example 15] |  |  |  |  |  |  |  |  |  |  |  |  |  | IC50 (BT474; [9]): > 50 µM; IC50 (HCT-116; three days): 10.3 µM; IC50 (LoVo; three days): 50 µM; IC50 (MCF-7; three days): 28 µM; IC50 (SK-UT-1B): 11.6 µM
CN(C)Cc1ccc(N/C=C2\C(=O)NC(=O)c3ccccc32)cc1 [Example 25, (4Z)-4-[({4[(Dimethylamino)methyl]phenyl}amino)methylene]isoquinolin-1,3(2H,4H)-dione] | > 29 | 16.2 | 6.6 | 22.7 |  |  |  |  |  |  | 11.5 |  | 5.6 | 
